According to ChEMBL document CHEMBL1201862, “PubChem BioAssay data set” (2004):
The source made the active and inactive calls.

Legend:
Estrogen receptor = molecular target: T1, Estrogen receptor (Homo sapiens, UniProt P03372); assay: potentiators of ERα–SRC-1 coactivator binding, dose response, biochemical, TR-FRET, ERα LBD (AID 737)
T1 sequence (P03372 whole entry): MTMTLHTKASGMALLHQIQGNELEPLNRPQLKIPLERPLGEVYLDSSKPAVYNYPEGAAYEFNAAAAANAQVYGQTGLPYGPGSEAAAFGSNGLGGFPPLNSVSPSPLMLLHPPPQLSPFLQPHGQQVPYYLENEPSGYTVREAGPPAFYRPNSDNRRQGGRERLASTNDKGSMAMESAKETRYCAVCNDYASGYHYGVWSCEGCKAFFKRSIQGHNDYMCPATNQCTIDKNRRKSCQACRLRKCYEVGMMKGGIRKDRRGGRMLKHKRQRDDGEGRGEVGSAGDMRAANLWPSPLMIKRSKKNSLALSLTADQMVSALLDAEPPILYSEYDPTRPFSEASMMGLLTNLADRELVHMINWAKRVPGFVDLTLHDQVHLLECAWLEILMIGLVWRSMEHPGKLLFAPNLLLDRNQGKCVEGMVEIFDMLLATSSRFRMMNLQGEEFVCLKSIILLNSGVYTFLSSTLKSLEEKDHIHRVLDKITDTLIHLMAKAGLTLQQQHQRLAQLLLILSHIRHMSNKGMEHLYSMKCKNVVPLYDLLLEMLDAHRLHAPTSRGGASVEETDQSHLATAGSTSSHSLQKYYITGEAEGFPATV

[1] = molecular target: Glutathione-S-transferase (Schistosoma japonicum, UniProt Q26513); assay: biotin-GST/anti-GST TR-FRET signal inhibitors, dose response, artefact control for Vif-APOBEC3G degradation inhibitor project, biochemical (AID 1117362); type: functional
Protein Tat = Protein Tat (Human immunodeficiency virus type 1 group M subtype B (isolate HXB2)(HIV-1), UniProt P04608); type: functional;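 further: tat binding to TAR RNA read out by fluorescence polarization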
[2] = molecular target: T2, Nuclear receptor subfamily 0 group B member 1 (Homo sapiens, UniProt P51843); type: functional, cell-based;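 further: HEK293T cells transfected with SF-1 and DAX-1 plus StAR promoter luciferase reporter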
T2 sequence (P51843 whole entry): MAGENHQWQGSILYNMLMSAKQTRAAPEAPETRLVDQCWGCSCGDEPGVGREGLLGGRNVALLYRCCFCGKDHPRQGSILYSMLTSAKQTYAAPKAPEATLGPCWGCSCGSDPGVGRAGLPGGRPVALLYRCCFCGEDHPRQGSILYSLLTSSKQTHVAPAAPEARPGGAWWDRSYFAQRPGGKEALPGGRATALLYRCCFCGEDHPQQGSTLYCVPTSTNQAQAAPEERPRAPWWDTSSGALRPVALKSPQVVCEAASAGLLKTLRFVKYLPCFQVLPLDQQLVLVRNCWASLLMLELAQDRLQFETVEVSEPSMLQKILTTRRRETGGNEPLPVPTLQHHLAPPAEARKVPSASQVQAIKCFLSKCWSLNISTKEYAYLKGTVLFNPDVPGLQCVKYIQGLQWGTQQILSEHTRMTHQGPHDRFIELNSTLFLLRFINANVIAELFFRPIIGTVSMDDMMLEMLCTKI

cells = type: functional, cell-based
Nonstructural protein 1 = Nonstructural protein 1 (Influenza A virus, UniProt Q194T2); type: functional, Influenza A virus (A/California/07/2009(H1N1))
NADPH oxidase 1 = NADPH oxidase 1 (Homo sapiens, UniProt Q9Y5S8); type: functional, cell-based;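 further: Cell-based assay with luminescence read-out, IC50 derived from inhibitor dose-response curves; intracellular ROS from endogenous NOX1 in intact HT29 colon cancer cells; potency of inhibitors that lower the ROS luminescence signal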
Estrogen receptor beta [3] = molecular target: T3, Estrogen receptor beta (Homo sapiens, UniProt Q92731); assay: ERβ–SRC-3 coactivator interaction inhibitors, confirmation, orthogonal assay, biochemical, ELISA, streptavidin-HRP readout (AID 1060)
Estrogen receptor beta [4] = molecular target: T3, Estrogen receptor beta
[5] = molecular target: Solute carrier family 12 member 2/member 5 (Homo sapiens, UniProt P55011+Q9H2X9); assay: KCC2 and NKCC1 inhibition by rubidium flux, cell-based, NKCC1 counter-screen (AID 1734); type: functional, HEK293
[6] = molecular target: T4, Mannose-6-phosphate isomerase (Homo sapiens, UniProt P34949); assay: human PMI inhibitors, high substrate, primary screen, biochemical, fluorescence intensity, high mannose 6-phosphate (AID 1220)
T4 sequence (P34949 whole entry): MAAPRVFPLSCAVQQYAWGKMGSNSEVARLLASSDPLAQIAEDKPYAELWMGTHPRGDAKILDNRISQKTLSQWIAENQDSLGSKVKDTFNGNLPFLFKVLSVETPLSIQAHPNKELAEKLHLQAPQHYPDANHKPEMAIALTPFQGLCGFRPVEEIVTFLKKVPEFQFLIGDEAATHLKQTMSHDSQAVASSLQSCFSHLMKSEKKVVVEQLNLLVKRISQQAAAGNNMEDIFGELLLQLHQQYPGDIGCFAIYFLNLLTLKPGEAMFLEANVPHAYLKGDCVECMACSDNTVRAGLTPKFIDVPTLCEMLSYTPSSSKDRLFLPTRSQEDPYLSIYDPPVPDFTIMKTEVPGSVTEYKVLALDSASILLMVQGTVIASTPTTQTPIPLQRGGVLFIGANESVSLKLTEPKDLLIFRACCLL

Procathepsin L = Procathepsin L (Homo sapiens, UniProt P07711); assay: cathepsin L inhibitors, dose response, counter-screen for M1/M17 aminopeptidase inhibitor project, biochemical, QFRET, 1536-well (AID 2214)
Leucine aminopeptidase = molecular target: T5, Leucine aminopeptidase (Plasmodium falciparum 3D7, UniProt Q8IL11); assay: P. falciparum M17LAP inhibitors, primary screen, biochemical, fluorogenic H-Leu-NHMec substrate, 1536-well (AID 1619); type: functional
T5 sequence (Q8IL11 whole entry): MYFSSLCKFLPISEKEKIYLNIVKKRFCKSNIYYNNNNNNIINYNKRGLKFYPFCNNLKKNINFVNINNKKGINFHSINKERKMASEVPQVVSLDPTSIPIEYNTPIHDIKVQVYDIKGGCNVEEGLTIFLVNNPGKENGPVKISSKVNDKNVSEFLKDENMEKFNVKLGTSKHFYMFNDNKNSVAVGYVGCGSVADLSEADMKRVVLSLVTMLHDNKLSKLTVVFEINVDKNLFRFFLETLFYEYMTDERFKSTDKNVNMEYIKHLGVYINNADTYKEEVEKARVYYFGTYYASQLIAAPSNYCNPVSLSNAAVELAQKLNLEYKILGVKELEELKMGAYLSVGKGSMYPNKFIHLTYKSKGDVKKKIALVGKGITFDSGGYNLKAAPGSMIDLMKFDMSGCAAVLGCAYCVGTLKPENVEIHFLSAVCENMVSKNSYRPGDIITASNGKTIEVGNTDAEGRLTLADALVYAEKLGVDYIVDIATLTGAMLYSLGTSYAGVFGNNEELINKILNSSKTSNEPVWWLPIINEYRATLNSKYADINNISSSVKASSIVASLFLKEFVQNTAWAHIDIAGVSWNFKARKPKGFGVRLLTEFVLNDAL

Aspartyl aminopeptidase = molecular target: T6, Aspartyl aminopeptidase (Plasmodium falciparum 3D7, UniProt Q8I2J3); assay: Counterscreen for inhibitors of M1 and M17 aminopeptidases: QFRET-based biochemical high throughput dose response assay for inhibitors of the Plasmodium falciparum M18 Aspartyl Aminopeptidase (PFM18AAP). [Related PubChem assays: 1619 (Screening assay (M17LAP inhibitors).), 1445 (Screening assay (M1AAP inhibitors).)]
T6 sequence (Q8I2J3 whole entry): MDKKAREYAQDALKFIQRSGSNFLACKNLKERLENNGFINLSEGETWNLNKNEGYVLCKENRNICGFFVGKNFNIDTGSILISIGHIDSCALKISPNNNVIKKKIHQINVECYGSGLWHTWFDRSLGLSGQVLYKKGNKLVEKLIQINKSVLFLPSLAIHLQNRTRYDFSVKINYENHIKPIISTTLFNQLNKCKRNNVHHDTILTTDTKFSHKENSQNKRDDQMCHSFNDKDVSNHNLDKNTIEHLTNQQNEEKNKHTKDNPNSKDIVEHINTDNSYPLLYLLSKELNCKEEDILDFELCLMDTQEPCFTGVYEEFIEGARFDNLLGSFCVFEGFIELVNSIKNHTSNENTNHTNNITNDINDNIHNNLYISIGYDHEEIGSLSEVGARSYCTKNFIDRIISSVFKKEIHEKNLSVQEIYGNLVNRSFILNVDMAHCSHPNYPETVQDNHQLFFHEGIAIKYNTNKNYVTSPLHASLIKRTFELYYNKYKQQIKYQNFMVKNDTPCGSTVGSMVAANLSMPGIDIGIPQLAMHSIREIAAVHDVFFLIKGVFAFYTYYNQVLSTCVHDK

T3 sequence (Q92731 whole entry): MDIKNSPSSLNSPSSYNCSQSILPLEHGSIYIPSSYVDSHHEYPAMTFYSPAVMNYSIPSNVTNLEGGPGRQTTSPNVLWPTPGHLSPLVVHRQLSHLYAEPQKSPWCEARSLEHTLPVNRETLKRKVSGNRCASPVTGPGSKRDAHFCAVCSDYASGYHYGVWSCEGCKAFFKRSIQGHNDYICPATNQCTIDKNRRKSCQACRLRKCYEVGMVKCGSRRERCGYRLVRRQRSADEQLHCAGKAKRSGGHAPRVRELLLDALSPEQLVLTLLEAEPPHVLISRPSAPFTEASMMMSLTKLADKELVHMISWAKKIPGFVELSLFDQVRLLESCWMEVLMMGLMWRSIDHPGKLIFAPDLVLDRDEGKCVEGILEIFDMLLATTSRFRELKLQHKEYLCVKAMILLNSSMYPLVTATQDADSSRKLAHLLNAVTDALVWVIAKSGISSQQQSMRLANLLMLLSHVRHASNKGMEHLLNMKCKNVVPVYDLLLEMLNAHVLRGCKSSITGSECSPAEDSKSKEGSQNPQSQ
Chain of Glutathione-S-transferase (Q26513 whole entry): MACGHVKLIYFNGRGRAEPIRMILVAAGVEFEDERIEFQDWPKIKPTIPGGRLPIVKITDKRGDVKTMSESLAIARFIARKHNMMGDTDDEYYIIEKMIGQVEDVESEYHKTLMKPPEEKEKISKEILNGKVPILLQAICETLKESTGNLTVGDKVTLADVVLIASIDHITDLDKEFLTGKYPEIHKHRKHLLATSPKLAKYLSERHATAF
Chain of Nonstructural protein 1 (Q194T2 whole entry): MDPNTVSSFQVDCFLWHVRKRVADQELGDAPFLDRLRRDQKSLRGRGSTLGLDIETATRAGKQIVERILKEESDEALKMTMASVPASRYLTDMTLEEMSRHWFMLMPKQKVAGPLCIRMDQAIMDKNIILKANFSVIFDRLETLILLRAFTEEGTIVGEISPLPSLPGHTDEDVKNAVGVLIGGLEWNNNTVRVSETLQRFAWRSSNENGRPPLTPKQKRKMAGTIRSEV
Chain of Procathepsin L (P07711 whole entry): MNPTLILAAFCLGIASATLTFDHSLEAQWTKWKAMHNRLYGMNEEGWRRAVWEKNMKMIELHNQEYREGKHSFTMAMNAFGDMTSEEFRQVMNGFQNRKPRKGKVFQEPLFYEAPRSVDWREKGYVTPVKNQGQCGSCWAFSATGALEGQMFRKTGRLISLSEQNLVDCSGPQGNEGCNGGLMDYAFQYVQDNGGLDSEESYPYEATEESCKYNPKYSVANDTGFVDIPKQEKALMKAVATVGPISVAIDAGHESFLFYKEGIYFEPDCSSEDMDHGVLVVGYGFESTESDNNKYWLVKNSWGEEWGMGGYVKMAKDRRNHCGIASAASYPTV
Chain of NADPH oxidase 1 (Q9Y5S8 whole entry): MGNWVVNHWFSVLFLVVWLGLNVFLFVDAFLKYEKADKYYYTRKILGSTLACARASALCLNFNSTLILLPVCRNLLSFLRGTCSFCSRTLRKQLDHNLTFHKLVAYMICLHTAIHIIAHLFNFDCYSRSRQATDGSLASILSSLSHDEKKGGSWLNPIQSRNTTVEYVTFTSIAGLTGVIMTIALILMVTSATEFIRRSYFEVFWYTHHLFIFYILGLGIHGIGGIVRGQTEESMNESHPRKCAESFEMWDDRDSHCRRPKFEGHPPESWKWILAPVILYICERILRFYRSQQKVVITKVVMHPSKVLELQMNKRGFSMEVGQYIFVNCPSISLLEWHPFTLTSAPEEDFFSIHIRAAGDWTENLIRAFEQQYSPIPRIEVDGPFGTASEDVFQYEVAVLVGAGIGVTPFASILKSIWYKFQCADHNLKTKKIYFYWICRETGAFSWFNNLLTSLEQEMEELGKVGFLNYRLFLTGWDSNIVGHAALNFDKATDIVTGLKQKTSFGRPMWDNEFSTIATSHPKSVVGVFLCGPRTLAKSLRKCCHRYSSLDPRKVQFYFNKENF
Chain of Protein Tat (P04608 whole entry): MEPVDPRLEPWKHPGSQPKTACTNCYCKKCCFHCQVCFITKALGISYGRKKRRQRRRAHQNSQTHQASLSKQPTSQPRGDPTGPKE

Compound: Cc1cc(-c2nnc3sc(-c4ccc(Cl)cc4Cl)nn23)n[nH]1
- EC50 (Estrogen receptor): 15.4 µM (active)

Compound: CCCn1cnc2cc(NCc3ccccn3)ccc21
- IC50 [1]: > 100 µM (active)
- IC50 (Protein Tat): > 100 µM (active)
- IC50 [2]: > 67.5 µM (inactive)
- IC50 (cells): > 67.5 µM (inactive)
- IC50 (Nonstructural protein 1): > 100 µM (active)

Compound: O=C(Oc1ccccc1[N+](=O)[O-])c1sc2ccccc2c1Cl
- IC50 (NADPH oxidase 1): > 17 µM (not active)

Compound: Cc1ccc(-c2nnc(CSc3nc4cc5c(cc4cc3C)OCO5)o2)cc1
- IC50 (Estrogen receptor beta [3]): 0.0359 µM (not active)
- IC50 (Estrogen receptor beta [4]): > 50 µM (not active)

Compound: O=C(Cn1cnc2c(nnn2Cc2ccc(F)cc2)c1=O)N1CCCc2ccccc21
- IC50 [5]: 1.3 µM (active)

Compound: C=CCn1c(SCC(=O)N2N=C(c3ccco3)CC2c2ccco2)nnc1-c1ccncc1 (centres undefined)
- IC50 [6]: > 50 µM (not active)

Compound: Cc1ccc(NC(=O)CSc2nnc(C)c(=O)[nH]2)cc1C
- IC50 (Procathepsin L): > 59.6 µM (not active)
- IC50 (Leucine aminopeptidase): 3.51 µM (active)
- IC50 (Aspartyl aminopeptidase): > 73.5 µM (not active)
